From article PMC3829422, “Conformational Plasticity and Ligand Binding of Bacterial Monoacylglycerol Lipase” (The Journal of Biological Chemistry, 2013)
Changes are numbered by the printed parent chain.

Legend:
Test in all cases: X-ray crystal structure, […] A
Type in all cases: binding
bMGL [1] = molecular target: T1, bMGL (Bacillus sp. H-257, UniProt P82597, D196N); conditions: inactive variant; co-crystallised and soaked; HEPES pH 6.9; active site, chain A only; noncovalent
T1 construct: cap Asn-120-Thr-164; catalytic triad Ser-97, Asp-196, His-226
T1 sequence (P82597 1-250 D196N): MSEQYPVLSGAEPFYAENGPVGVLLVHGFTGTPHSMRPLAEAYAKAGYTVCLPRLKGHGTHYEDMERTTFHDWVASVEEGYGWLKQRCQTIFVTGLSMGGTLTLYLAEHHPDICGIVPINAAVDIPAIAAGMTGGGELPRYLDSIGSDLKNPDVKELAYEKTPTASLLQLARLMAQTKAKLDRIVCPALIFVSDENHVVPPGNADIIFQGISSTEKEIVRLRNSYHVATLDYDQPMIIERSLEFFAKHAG

bMGL [2] = molecular target: T2, bMGL (Bacillus sp. H-257, UniProt P82597); conditions: covalent; Ser-97 phosphonate adduct, 4-nitrophenol released; MES/imidazole pH 6.5
T2 construct: cap Asn-120-Thr-164; catalytic triad Ser-97, Asp-196, His-226
T2 sequence (P82597 1-250): T1 sequence (P82597 1-250 D196N) with N196D

bMGL [3] = molecular target: T2, bMGL; conditions: covalent; Ser-97 phosphonate adduct, 4-nitrophenol released; citric acid pH 5.2
bMGL [4] = molecular target: T2, bMGL; conditions: covalent; Ser-97 phosphonate adduct, 4-nitrophenol released; citric acid pH 5.0

## CCCCCCCCCCCC(=O)OCC(O)CO (racemic) [1-LG, 1-lauroylglycerol]
bMGL [1]
  X-ray crystal structure, 2.8 A: we only interpreted the electron density of the bMGL(D196N)-1-LG crystal in chain A as substrate

## CCCCCCCCCCCCOP(=O)(CCCN=[N+]=[N-])Oc1ccc([N+](=O)[O-])cc1 (stereo not shown) [C12 ligand, dodecyl 4-nitrophenyl (3-azidopropyl)phosphonate]
bMGL [2]
  X-ray crystal structure, 1.7 A: both had the C12 ligand covalently bound in the active site

## CCCCCCCCCCCCCCOP(=O)(CCCN=[N+]=[N-])Oc1ccc([N+](=O)[O-])cc1 (stereo not shown) [C14 ligand]
bMGL [3]
  X-ray crystal structure, 1.85 A: electron densities for the ligands bound to active site residue Ser-97 were observed

## CCCCCCCCCCCCCCCCOP(=O)(CCCN=[N+]=[N-])Oc1ccc([N+](=O)[O-])cc1 (stereo not shown) [C16 ligand]
bMGL [4]
  X-ray crystal structure, 2.2 A: electron densities for the ligands bound to active site residue Ser-97 were observed
